Tests used:
Type in all cases: cell-based
[1] = molecular target: T1, hNLRP3 (Homo sapiens, UniProt Q96P20); assay: hNLRP3 agonist assay: IL-1β production in PMA-differentiated THP-1 cells (ELISA); conditions: IL-1β by ELISA
T1 construct: THP-1 cells were purchased from the American Type Culture Collection; host or cells: THP-1 cells, PMA-differentiated
Procedure: THP-1 cells were purchased from the American Type Culture Collection and sub-cultured according to instructions from the supplier. Prior to experiments, cells were cultured in RPMI 1640 containing 10% heat inactivated FBS, penicillin (100 units/ml) and streptomycin (100 μg/ml), and maintained in log phase prior to experimental setup. Prior to the experiment THP-1 were treated with PMA (Phorbol 12-myristate 13-acetate) (10 μg/ml) for 24 hours. The day of the experiment the media was removed and attaching cells were treated with trypsin for 2 minutes, cells were then collected, washed with PBS (phosphate buffer saline), spin down, resuspended in 2% heat inactivated FBS with RPMI at a concentration of 1×10^6 cells/ml, and 100 μl was plated in a 96 well plate. Cells were incubated with compounds for 4 hours. Cell free supernatant was collected and the production of IL-1β was evaluated by ELISA. Compounds were dissolved in dimethyl sulfoxide (DMSO) and added to the culture medium to achieve desired concentration (e.g. 100, 30, 10, 3, 1, 0.3 or 0.1 μM). A vehicle only control was run concurrently with each experiment. Final DMSO concentration was 1%.

[2] = molecular target: T2, TLR7 (Homo sapiens, UniProt Q9NYK1); assay: TLR7 EC50 assay
T2 sequence (Q9NYK1 27-1049): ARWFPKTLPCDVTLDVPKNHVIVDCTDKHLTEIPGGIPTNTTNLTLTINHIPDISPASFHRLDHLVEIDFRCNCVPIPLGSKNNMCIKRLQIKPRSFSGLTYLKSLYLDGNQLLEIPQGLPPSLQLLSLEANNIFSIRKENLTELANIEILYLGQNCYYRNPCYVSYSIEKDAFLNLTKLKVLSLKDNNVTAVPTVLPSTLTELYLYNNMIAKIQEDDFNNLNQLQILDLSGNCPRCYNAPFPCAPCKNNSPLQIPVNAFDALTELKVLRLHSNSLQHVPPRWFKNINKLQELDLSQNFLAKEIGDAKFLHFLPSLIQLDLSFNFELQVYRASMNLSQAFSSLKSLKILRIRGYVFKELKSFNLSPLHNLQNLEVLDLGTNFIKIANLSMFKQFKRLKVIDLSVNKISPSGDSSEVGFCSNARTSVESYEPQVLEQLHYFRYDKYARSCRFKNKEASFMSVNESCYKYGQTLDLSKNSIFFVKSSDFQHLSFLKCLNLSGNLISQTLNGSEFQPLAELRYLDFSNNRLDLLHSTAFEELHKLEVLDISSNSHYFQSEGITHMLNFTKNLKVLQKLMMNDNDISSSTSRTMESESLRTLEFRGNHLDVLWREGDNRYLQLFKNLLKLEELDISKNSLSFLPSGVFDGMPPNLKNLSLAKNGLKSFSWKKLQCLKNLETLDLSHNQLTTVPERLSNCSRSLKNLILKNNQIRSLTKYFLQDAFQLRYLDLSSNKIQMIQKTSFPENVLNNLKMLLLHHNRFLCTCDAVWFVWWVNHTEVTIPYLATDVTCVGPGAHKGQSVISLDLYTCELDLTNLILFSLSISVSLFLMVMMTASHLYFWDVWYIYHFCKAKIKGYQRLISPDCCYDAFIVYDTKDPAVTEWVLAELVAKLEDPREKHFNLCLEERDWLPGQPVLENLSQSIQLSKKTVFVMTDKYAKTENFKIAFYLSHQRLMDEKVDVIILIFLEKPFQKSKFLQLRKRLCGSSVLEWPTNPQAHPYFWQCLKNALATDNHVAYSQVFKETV

[3] = molecular target: T3, TLR8 (Homo sapiens, UniProt Q9NR97); assay: TLR8 EC50 assay
T3 sequence (Q9NR97 27-1041): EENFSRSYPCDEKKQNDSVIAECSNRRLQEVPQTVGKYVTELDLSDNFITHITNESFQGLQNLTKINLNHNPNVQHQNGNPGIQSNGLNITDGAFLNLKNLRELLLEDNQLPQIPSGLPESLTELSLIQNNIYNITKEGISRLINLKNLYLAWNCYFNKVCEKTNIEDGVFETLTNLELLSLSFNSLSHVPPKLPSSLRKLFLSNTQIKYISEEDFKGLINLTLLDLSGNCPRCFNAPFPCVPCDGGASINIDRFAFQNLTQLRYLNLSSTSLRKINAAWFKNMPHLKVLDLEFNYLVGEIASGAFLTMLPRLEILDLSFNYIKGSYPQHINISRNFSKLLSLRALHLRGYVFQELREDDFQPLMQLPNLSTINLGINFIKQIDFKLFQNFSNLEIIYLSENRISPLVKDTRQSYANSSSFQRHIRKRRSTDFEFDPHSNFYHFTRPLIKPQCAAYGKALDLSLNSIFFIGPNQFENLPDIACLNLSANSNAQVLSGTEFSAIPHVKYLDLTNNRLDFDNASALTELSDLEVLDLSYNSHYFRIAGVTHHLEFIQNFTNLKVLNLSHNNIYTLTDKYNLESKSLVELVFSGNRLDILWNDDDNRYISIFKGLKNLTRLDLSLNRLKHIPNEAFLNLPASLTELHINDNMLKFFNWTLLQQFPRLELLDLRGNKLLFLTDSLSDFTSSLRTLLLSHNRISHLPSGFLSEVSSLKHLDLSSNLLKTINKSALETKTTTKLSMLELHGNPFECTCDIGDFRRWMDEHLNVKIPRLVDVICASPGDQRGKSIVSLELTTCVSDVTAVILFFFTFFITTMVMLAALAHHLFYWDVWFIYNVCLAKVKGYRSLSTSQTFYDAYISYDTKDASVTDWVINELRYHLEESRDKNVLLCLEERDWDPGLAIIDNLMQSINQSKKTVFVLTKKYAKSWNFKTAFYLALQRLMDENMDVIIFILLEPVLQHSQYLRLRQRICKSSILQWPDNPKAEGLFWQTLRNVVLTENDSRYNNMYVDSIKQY

T1 sequence (Q96P20 whole entry): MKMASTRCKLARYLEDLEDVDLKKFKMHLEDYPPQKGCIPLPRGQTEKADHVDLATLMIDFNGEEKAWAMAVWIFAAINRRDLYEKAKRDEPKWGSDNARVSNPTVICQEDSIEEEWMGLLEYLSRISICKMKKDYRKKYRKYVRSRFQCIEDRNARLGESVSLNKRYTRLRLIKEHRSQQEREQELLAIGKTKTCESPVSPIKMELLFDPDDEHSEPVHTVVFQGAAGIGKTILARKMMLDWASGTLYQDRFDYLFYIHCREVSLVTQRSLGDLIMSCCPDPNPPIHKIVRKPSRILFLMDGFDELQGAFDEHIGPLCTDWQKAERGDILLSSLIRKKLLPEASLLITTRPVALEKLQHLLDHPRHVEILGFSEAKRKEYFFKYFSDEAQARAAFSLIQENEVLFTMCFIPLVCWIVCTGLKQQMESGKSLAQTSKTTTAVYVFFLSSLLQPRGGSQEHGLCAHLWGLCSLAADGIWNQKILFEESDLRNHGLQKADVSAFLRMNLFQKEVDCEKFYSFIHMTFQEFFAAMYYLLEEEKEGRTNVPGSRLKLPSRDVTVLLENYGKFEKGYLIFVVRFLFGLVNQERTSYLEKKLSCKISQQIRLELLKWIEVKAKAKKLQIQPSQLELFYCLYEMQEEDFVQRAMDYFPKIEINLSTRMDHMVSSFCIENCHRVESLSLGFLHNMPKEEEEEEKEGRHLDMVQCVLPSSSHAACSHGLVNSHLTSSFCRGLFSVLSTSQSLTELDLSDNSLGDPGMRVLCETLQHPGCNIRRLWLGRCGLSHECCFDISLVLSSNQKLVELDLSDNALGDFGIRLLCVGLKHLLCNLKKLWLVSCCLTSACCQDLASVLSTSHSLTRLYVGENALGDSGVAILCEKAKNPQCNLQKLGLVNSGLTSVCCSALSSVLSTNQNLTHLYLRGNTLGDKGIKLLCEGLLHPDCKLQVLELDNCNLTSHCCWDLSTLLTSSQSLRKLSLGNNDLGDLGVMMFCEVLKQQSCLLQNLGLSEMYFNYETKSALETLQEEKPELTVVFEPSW

Structure (SMILES)	EC50 ([1]; Table 2, 4 hours) [µM]	EC50 ([2]; Table 2) [µM]	EC50 ([3]; Table 2) [µM]	EC50 ([1]; Table 1, 4 hours) [µM]	EC50 ([2]; Table 1) [µM]	EC50 ([3]; Table 1) [µM]
Nc1nc2cc(-n3ccnc3)ccc2c2[nH]c(CCCO)nc12 [Compound 179, 3-(4-amino-7-imidazol-1-yl-1H-imidazo[4,5-c]quinolin-2-yl)propan-1-ol]	> 100	> 100	> 100	–	–	–
Nc1nc2cc(C3CCCC3)ccc2c2[nH]c(CCCO)nc12 [Compound 161, 3-(4-amino-7-cyclopentyl-1H-imidazo[4,5-c]quinolin-2-yl)propan-1-ol]	≤ 1	> 100	> 100	–	–	–
COc1cncc(-c2ccc3c(c2)nc(N)c2nc(CCCO)[nH]c23)c1 [Compound 175, 3-[4-amino-7-(5-methoxypyridin-3-yl)-1H-imidazo[4,5-c]quinolin-2-yl]propan-1-ol]	> 100	> 100	> 100	–	–	–
Nc1nc2cc(N3CCCC3=O)ccc2c2[nH]c(CCCO)nc12 [Compound 183, 1-[4-amino-2-(3-hydroxypropyl)-1H-imidazo[4,5-c]quinolin-7-yl]pyrrolidin-2-one]	20 to 100	> 100	> 100	–	–	–
CC(=O)NCCCn1c(C2CCN(C(=O)c3ccccc3)CC2)nc2c(N)nc3cc(Br)ccc3c21 [Compound 227]	20 to 100	> 100	> 100	–	–	–
N#Cc1ccccc1-c1ccc2c(c1)nc(N)c1nc(CCCO)[nH]c12 [Compound 202, 2-[4-amino-2-(3-hydroxypropyl)-1H-imidazo[4,5-c]quinolin-7-yl]benzonitrile]	> 100	> 100	> 100	–	–	–
Nc1nc2cc(-c3cccnc3)ccc2c2[nH]c(CCCO)nc12 [Compound 147, 3-(4-amino-7-pyridin-3-yl-1H-imidazo[4,5-c]quinolin-2-yl)propan-1-ol]	1 to 20	> 100	> 100	–	–	–
Nc1nc2cc(N3CCCC3)ccc2c2[nH]c(CCCO)nc12 [Compound 166, 3-(4-amino-7-pyrrolidin-1-yl-1H-imidazo[4,5-c]quinolin-2-yl)propan-1-ol]	> 100	> 100	> 100	–	–	–
CN1CCC(c2nc3c(N)nc4ccccc4c3[nH]2)CC1 [Compound 228]	20 to 100	> 100	> 100	–	–	–
Nc1nc2cc(Br)ccc2c2[nH]c([C@H]3CC[C@H](O)CC3)nc12 [Compound 125]	1 to 20	> 100	> 100	–	–	–
Nc1nc2cc(-c3cncnc3)ccc2c2[nH]c(CCCO)nc12 [Compound 188, 3-(4-amino-7-pyrimidin-5-yl-1H-imidazo[4,5-c]quinolin-2-yl)propan-1-ol]	20 to 100	> 100	> 100	–	–	–
CCNC(C)(C)c1nc2c(N)nc3cc(-c4cc[nH]n4)ccc3c2[nH]1 [Compound 251]	1 to 20	> 100	> 100	–	–	–
Nc1nc2cc(Br)ccc2c2[nH]c(C3CCN(S(=O)(=O)c4ccccc4)CC3)nc12 [Compound 220]	1 to 20	> 100	> 100	–	–	–
CN1CCC[C@@H](c2nc3c(N)nc4ccccc4c3[nH]2)C1 [Compound 139]	20 to 100	> 100	> 100	–	–	–
Nc1nc2cc(Cl)ccc2c2[nH]c(CCCO)nc12 [Compound 165, 3-(4-amino-7-chloro-1H-imidazo[4,5-c]quinolin-2-yl)propan-1-ol]	20 to 100	20 to 100	20 to 100	–	–	–
Nc1nc2cc(-c3cc[nH]n3)ccc2c2[nH]c(CN3CC4COCC4C3)nc12 (stereo not shown) [Compound 232]	1 to 20	> 100	> 100	–	–	–
Nc1nc2cc(-n3cnc4ccccc43)ccc2c2[nH]c(CCCO)nc12 [Compound 182, 3-[4-amino-7-(benzimidazol-1-yl)-1H-imidazo[4,5-c]quinolin-2-yl]propan-1-ol]	> 100	> 100	> 100	–	–	–
CC(C)c1ccc2c(c1)nc(N)c1nc(CCCO)[nH]c12 [Compound 159, 3-(4-amino-7-propan-2-yl-1H-imidazo[4,5-c]quinolin-2-yl)propan-1-ol]	1 to 20	20 to 100	> 100	–	–	–
CCc1ccc2c(c1)nc(N)c1nc(CCCO)[nH]c12 [Compound 162, 3-(4-amino-7-ethyl-1H-imidazo[4,5-c]quinolin-2-yl)propan-1-ol]	1 to 20	20 to 100	20 to 100	–	–	–
Cc1cnn(-c2ccc3c(c2)nc(N)c2nc(CCCO)[nH]c23)c1 [Compound 181, 3-[4-amino-7-(4-methylpyrazol-1-yl)-1H-imidazo[4,5-c]quinolin-2-yl]propan-1-ol]	1 to 20	> 100	> 100	–	–	–
Nc1nc2ccccc2c2[nH]c(CCCO)nc12 [Compound 101, 3-[4-amino-1H-imidazo[4,5-c]quinolin-2-yl]propan-1-ol]	–	–	–	20 to 100	20 to 100	20 to 100
Nc1nc2cc(CC(=O)O)ccc2c2[nH]c(CCCO)nc12 [Compound 121]	1 to 20	> 100	> 100	–	–	–
Cc1ncc(-c2ccc3c(c2)nc(N)c2nc(CCCO)[nH]c23)cn1 [Compound 155, 3-[4-amino-7-(2-methylpyrimidin-5-yl)-1H-imidazo[4,5-c]quinolin-2-yl]propan-1-ol]	1 to 20	> 100	> 100	–	–	–
Nc1nc2cc(Br)ccc2c2[nH]c(C3CCC(O)CC3)nc12 (stereo not shown) [Compound 116]	1 to 20	–	–	–	–	–
Nc1nc2cc(C3CCNCC3)ccc2c2[nH]c(CCCO)nc12 [Compound 198, 3-(4-amino-7-piperidin-4-yl-1H-imidazo[4,5-c]quinolin-2-yl)propan-1-ol]	> 100	> 100	–	–	–	–
Nc1nc2cc(-n3cccn3)ccc2c2[nH]c(CN3CC4COCC4C3)nc12 (stereo not shown) [Compound 109]	≤ 1	–	–	–	–	–
Nc1nc2cc(C3CCNC3)ccc2c2[nH]c(CCCO)nc12 (stereo not shown) [Compound 197, 3-(4-amino-7-pyrrolidin-3-yl-1H-imidazo[4,5-c]quinolin-2-yl)propan-1-ol]	> 100	> 100	–	–	–	–
Nc1nc2cc(-c3cccs3)ccc2c2[nH]c(CCCOCc3ccccc3)nc12 [Compound 243]	1 to 20	–	–	–	–	–
